Target: T1, CDK2 (Homo sapiens, UniProt P24941)
T1 construct: endogenous in cells; host or cells: MKN1 cells
Experiment: CDK2 degradation in MKN1 cells (AlphaLISA)
Type: cell-based
Set-up: key to CDK2 degradation 14 h: Mean external-Abs DC50 (nM): A (<100 nM); B (≥100-500 nM); C (>500-1000 nM); D (>1000 nM); E (not achieved)
Details: 14 h incubation; for DC50: read-out: CDK2 degradation 14 h: Mean external-Abs DC50
Summary of the method: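 MKN1 cells (2e4/well) treated 14 h at 37° C with 11-point 1:5 dilutions (0.001 nM-10 μM, 0.1% DMSO). CDK2 in lysates quantified by AlphaLISA, no-cell background subtracted; DC50 from four-parameter logistic fit.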

Row | CDK2 degradation 14 h: Average Dmax % | DC50 [nM] | CDK2 degradation 14 h: Mean external-Abs DC50 (nM) | SMILES
1 | C (C (>25% -50%)) | > 1000 | – | Cc1cc(S(=O)(=O)NCCCCC2CCN(c3ccc(N4CCC(=O)NC4=O)cc3)CC2)ccc1Nc1ncc2cc(Cl)c(=O)n(C3CCCC3)c2n1 [I-411]
2 | A (A (>75% o)) | < 100 | – | Cc1cc(S(=O)(=O)N[C@H]2C[C@H](N3CCN(CC4CCN(c5cccc6c5n(C)c(=O)n6C5CCC(=O)NC5=O)CC4)CC3)C2)ccc1Nc1ncc(C(F)(F)F)c(N2CCC[C@H](C(F)F)C2)n1 (stereo partly shown) [I-796]
3 | D (D (<25%)) | > 1000 | – | Cc1cc(S(=O)(=O)N2CCC(OCCCc3ccc4c(c3)n(C)c(=O)n4C3CCC(=O)NC3=O)CC2)ccc1Nc1ncc2ccc(=O)n(C3CCCC3)c2n1 (stereo not shown) [I-453]

Second part, the molecule before the results:

Row | SMILES | CDK2 degradation 14 h: Average Dmax % | DC50 [nM] | CDK2 degradation 14 h: Mean external-Abs DC50 (nM)
4 | Cc1cc(S(=O)(=O)C2CCN(CCN3CCN(c4cccc5c4n(C)c(=O)n5C4CCC(=O)NC4=O)CC3)CC2)ccc1Nc1ncc2cc(Cl)c(=O)n(C3CCCC3)c2n1 (stereo not shown) [I-64] | A (A (>75% o)) | < 100 | –
5 | Cn1c(=O)n(C2CCC(=O)NC2=O)c2cccc(CCCOCCOCC(=O)N3CCC(Nc4ncc5cc(C(F)F)c(=O)n([C@@H]6CCC[C@]6(C)O)c5n4)CC3)c21 (stereo partly shown) [I-499] | D (D (<25%)) | > 1000 | –
6 | Cc1cc(S(=O)(=O)NC2CC(N3CCN(CC4(F)CCN(c5cccc6c5n(C)c(=O)n6C5CCC(=O)NC5=O)CC4)CC3)C2)ccc1Nc1ncc(C(F)(F)F)c(N2CCCC(C)(O)C2)n1 (stereo not shown) [I-698] | A (A (>75% o)) | < 100 | –
7 | Cc1cc(S(=O)(=O)N2CCC(N3CCC(F)(CN(C)c4ccc5c(c4F)n(C)c(=O)n5C4CCC(=O)NC4=O)CC3)CC2)ccc1Nc1ncc2ccc(=O)n(C3CCCC3)c2n1 (stereo not shown) [I-829] | D (D (<25%)) | – | E
8 | Cc1cc(S(=O)(=O)NC2CCC(CN3CCN(c4cc(F)cc(NC5CCC(=O)NC5=O)c4)CC3)CC2)ccc1Nc1ncc(C(F)(F)F)c(N2CCCC(C)(O)C2)n1 (stereo not shown) [I-1122] | A (A (>75% o)) | < 100 | –

Source: patent US20240173419A1, “CDK2 DEGRADERS AND USES THEREOF” (Kymera Therapeutics, Inc., priority 2022, published 2024)
